# Experimental data taken from patent publication US6177475A, “Methods of using integrin modulators for treatment of inflammation” (priority 1997, dated 2001).
# Key:
# [1] = test system: 111In-labeled neutrophils; assay: Neutrophil recruitment to inflamed joints in rat adjuvant arthritis; format: in vivo; details: 50 mg/kg i.v.; for Accumulation of 111In-labeled Neutrophils (mean ± SEM): 2 h
# Experimental: Rat adjuvant arthritis is characterized by integrin-mediated migration of ^51 Cr-labeled monocytes and ^111 In-labeled neutrophils into the inflamed synovium, which attains maximum between days 14 and 21 after the immunization. This model of human rheumatoid arthritis was used to assess in vivo effects of Ajoene on integrins that are known to be modulated by Ajoene in vitro.
# Adjuvant arthritis was induced in 6-8 week old inbred male Lewis rats by immunization on the lower back with 0.5 mg Mycobacterium butyricum (Difco Laboratories, Inc., Detroit, Mich.) in 0.05 ml mineral oil in two sites subcutaneously at the base of the tail. All the animals developed polyarticular arthritis between days 11 and 13 after immunization. For clinical scoring, 0-4 points were assigned per limb and tail, based on the severity of erythema, swelling, and limitation of movement (the maximal possible score was 20).
# Rat blood monocytes and neutrophils for migration studies were obtained by the hydroxyethyl starch (HES) exchange transfusion technique. The total blood volume of a donor rat was exchanged using 50 ml 6% HES solution in saline (DuPont Chemical Co., Dorval, Canada). After recovery of 40-45 ml blood/HES perfusate, the red cells were allowed to sediment (1 g) and the leukocyte-rich plasma was harvested. The leukocytes were recovered by centrifugation, resuspended in calcium-magnesium-free Tyrode's solution supplemented with 10% platelet-poor plasma (TS-PPP), and centrifuged in a discontinuous 63%/74% gradient of isotonic Percoll (Pharmacia Fine Chemicals, Dorval, Canada). The top layer, containing mononuclear cells (MN), and the cells in the 63%/74% interface, containing neutrophils, were collected, washed, and resuspended in TS-PPP. To obtain purified monocytes, the osmolality of the MN suspension was increased by adding 9% NaCl, and the suspension was centrifuged in a 40%/55%/58% Percoll gradient; monocytes were harvested at 40%/55% and […] interfaces, washed, and resuspended in TS-PPP.
# Thereafter, monocytes (10^7 cells/ml) were labeled with 75 microCurie/ml of Na2^51 CrO4 (Amersham, Oakville, Canada) at 37° C. for 30 min. Neutrophils (10^7 cells/ml) were labeled with 1 microCurie/ml of ^111 In oxine (Amersham) for 10 min. Both populations were washed to remove excess labeled material and checked for viability and purity. The viability of either cell population used in the experiments was in excess of 95% (as double-checked by Trypan blue exclusion and neutral red staining). The separation procedure described above ordinarily produced populations that contained no less than 90% monocytes and no less than 95% neutrophils. […]
# melanoma B16 cells = assay: Experimental metastasis, lung colonization by melanoma B16 cells; format: in vivo, C57BL/6 mice; details: B16 cells pretreated 30 min; 200 micromoles per liter; 3 weeks
# Experimental: A suspension of 10^5 melanoma B16 cells was pretreated for 30 min with Ajoene, and the suspension (including Ajoene) was injected intravenously into male C57BL/6 mice. The mice were sacrificed 3 weeks post-injection, and their lungs subjected to microscopic examination.
smiles,measurement,setting,value
"C=CCSSC=CC[S+]([O-])CC=C (centres unmarked) [Ajoene, 4,5,9-trithiadodeca-1,6,11-triene-9-oxide]",inhibition of neutrophil recruitment to the talar joints,[1],~ 50%
same,Accumulation of 111In-labeled Neutrophils (mean ± SEM),"[1]; talar joint, P < 0.001","15,052 cpm per sample"
same,Accumulation of 111In-labeled Neutrophils (mean ± SEM),"[1]; tarsal joint, P = 0.085","7,353 cpm per sample"
same,Accumulation of 111In-labeled Neutrophils (mean ± SEM),"[1]; vertebral joints, P = 0.089","3,658 cpm per sample"
same,prevention of lung colonization,melanoma B16 cells,prevented lung colonization
